# Assay results published in patent US20240058318A1, “DEGRADING PKCB1 TO TREAT CANCER” (Mayo Foundation for Medical Education and Research, priority 2020, published 2024).
# What was measured:
# Format in all cases: cell-based
# [1] = system: MDAMB231 cells; assay: Crystal violet (CV) proliferation assay, MDAMB231; details: MDAMB231 (PKCß1 high, Rb positive), 2000 cells
# Protocol: (§1) Cell proliferation rates were determined using crystal violet assays. […] Cells were fixed with 25% glutaraldehyde for 10 minutes with shaking, washed 5 times with distilled water, stained with a 1% crystal violet solution (solubilized in 25% methanol) for 10 minutes, washed again 5 times and allowed to dry. De-staining was performed using […] sodium citrate in 50% ethanol followed by quantification using a 96 well spectrophotometer set at an absorbance of 550 nm.
# [2] = system: unfolded protein response (UPR) mRNAs; assay: qRT-PCR of UPR-associated mRNAs in MDAMB231 cells; details: 1 μM, 0-48 hours, fold relative to DMSO
# Protocol: To evaluate the effect of PROTAC 7 (Pr-7) on expression of various proapoptotic polypeptides, triple negative MDAMB231 cells were treated with DMSO, 1 μM Pr-7, or 1 μM ENDX, and mRNA levels were assessed by qRT-PCR at 0-, 1-, 8-, 24-, and 48-hour time points.
# (§2) Triple negative breast cancer MDA-MB-231 cells were cultured in phenol-red free DMEM/F12 medium supplemented with 10% FBS and 1% AA. Cells were plated at 1×10^6 cells per 10 cm dish. The next day, the cells were treated with DMSO, 1 μM Pr-7 or 1 μM ENDX for 1, 8, 24, and 48 hours, and were then processed for RNA and RIPA protein analysis.
# In particular, total RNA from tissue samples and cell lines was extracted using the RNEASY® Plus mini kit (Qiagen; Hilden, Germany), cDNA was generated using a ISCRIPT™ cDNA synthesis kit (Bio-Rad; Hercules, CA) and qRT-PCR reactions were set up using PERFECTA® SYBR™ green fast mix reagents (Quanta BioSciences; Beverly, MA) and gene-specific primer sets (IDT; Coralville, IA). The forward and reverse primer sequences for the genes used in this analysis were obtained from the Harvard PrimerBank database. Amplification of HPRT and tubulin was used as an internal control. Relative expression between samples was calculated by the comparative Ct method.
# [3] = system: MDAMB436 cells; assay: Crystal violet (CV) proliferation assay, MDAMB436; details: MDAMB436 (PKCß1 low, Rb negative), 2000 cells
# Protocol: as §1
# [4] = system: Rb-proficient (MDAMB231) and Rb-deficient (BT549 and MDAMB436) TNBC cells; assay: CV proliferation assay, TNBC cells (statements across lines); details: MDAMB231 and BT549 cells (FIG. 4A and TABLE 1)
# Protocol: (§3) Cell proliferation rates were determined using crystal violet assays. One thousand cells per well were plated in 96 well tissue culture plates and treated the following day with a bifunctional compound or control for 7 days in replicates of 8. Cells were fixed with 25% glutaraldehyde for 10 minutes with shaking, washed 5 times with distilled water, stained with a 1% crystal violet solution (solubilized in 25% methanol) for 10 minutes, washed again 5 times and allowed to dry. De-staining was performed using […] sodium citrate in 50% ethanol followed by quantification using a 96 well spectrophotometer set at an absorbance of 550 nm.
# as §3, with “using CV” for “using crystal violet”, “assays. Two” for “assays. One”, “thousand (2000) or 4000” for “thousand”, “for 6” for “for 7”, “of 6.” for “of 8.”
# [5] = system: ER-stress induced UPR pathway; assay: Western blot of UPR pathway proteins in MDA-MB-231 cells; details: 1 μM
# Protocol: as §2
# For western blotting, 30 μg of protein lysates were run on Criterion precast 10% Bis-Tris gel, transferred to PVDF membrane, incubated in TBST-5% milk for one hour followed by overnight incubation with phospho-IRE1α (Sigma SAB5700519, rabbit, 1:1000), IRE1α (CS3294, rabbit, 1:1000), phospho-eIF2α (CS3398, rabbit, 1:1000), eIF2α (CS5324, rabbit, 1:1000), CHOP (CS2895, mouse, 1:1000), PUMA (SC374223, mouse, 1:200), NOXA (CS14766, rabbit, 1:1000), E2F1 (SC251, mouse, 1:250), BCL2 (SC7382, 1:200), cleaved PARP (CS5625, rabbit, 1:1000), PARP (CS9542, rabbit, 1:1000), PKCβ1 (SC8049, mouse, 1:200), PKCδ (CS2058, rabbit, 1:1000) and Actin (Sigma A2228, mouse, 1:10,000) primary antibodies in TBST-5% BSA solution. Membranes were washed in TBS-T, incubated for one-hour in HRP-linked anti-rabbit or anti-mouse secondary antibodies in TBST-5% milk, and washed with TBS-T. Bands were developed using west-pico or west-femto chemiluminescent substrate reagents.
# [6] = system: BT549 cells; assay: Crystal violet (CV) proliferation assay, BT549; details: BT549 (PKCß1 high, Rb negative), 2000 cells
# Protocol: as §1
# [7] = biological target: T1, PKCβ1 (Homo sapiens, UniProt P05771); assay: Western blot, PKCβ1 expression in MCF7AC1 cells; details: 1 μM, within 72 hours, drugs replenished every 24 hours
# T1 construct: western blots showing expression of PKCβ1 in MCF7AC1 cells treated with 1 μM concentration of the ENDX-PROTACs or ENDX; endogenous in cells; host or cells: MCF7AC1 (ER+ breast cancer cells)
# T1 sequence (P05771 whole entry): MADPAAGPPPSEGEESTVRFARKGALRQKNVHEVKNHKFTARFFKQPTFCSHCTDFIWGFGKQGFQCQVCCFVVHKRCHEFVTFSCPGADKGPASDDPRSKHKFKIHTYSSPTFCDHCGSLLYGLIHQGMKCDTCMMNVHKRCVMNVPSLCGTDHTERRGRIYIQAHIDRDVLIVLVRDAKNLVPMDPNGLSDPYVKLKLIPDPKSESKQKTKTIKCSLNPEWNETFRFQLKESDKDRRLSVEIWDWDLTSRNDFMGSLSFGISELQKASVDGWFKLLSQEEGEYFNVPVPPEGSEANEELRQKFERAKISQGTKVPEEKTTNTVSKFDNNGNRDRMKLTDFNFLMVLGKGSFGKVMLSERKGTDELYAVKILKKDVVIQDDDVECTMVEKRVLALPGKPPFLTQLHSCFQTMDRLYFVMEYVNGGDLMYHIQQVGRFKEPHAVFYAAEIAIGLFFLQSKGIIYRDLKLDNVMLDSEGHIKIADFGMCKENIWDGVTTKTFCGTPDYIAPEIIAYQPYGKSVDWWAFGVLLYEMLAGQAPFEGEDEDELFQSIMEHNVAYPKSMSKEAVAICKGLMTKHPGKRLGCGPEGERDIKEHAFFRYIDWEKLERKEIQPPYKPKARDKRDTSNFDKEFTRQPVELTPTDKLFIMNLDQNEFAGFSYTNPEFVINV
# Protocol: For western blotting analysis, cells were treated with vehicle (DMSO) or 1 μM of the indicated ENDX-PROTAC's or parent drug ENDX for 24, 48 and 72 hours with the drugs replenished every 24 hours. 25 μg of protein lysates were run on 10% Bis-Tris XT Criterion precast SDS-PAGE gels and transferred on to PVDF membrane. Following blocking with TB ST-5% milk, the membranes were probed with primary antibodies (1:500 — 1:2000 dilutions) for PKCβ1 (Abcam #136917), ERα (SC #8002), E2F1 (SC #251) and Actin (CS#8457) in TBST-5% BSA and secondary antibodies (1:2000 dilution) in TBST-5% milk. Membranes were developed using chemiluminescent WestPico or WestFemto detection solutions on the Li-Cor Imaging system.
smiles,measurement,setting,value
CC/C(=C(\c1ccc(O)cc1)c1ccc(OCCN(C)C(=O)COCCNC(=O)Cc2ccc3c(c2)CN(C2CCC(=O)NC2=O)C3=O)cc1)c1ccccc1 (centres unmarked) [TC-Pr-007],IC50,[1],87 nM
same,mRNA expression of UPR-associated genes,[2],"increased mRNA expression for CHOP, MCL-1, PUMA, NOXA, and Xbp-1"
same,IC50,[3],40 nM
same,induction of apoptosis,[4],induced apoptosis
same,E2F1 expression,[5],downregulation
same,E2F7 activation,[5],activated E2F7
same,PARP cleavage,[5],increased PARP cleavage
same,expression of anti-apoptotic protein BCL2,[5],downregulated
same,activation of ER-stress induced UPR pathway,[5]; 1-48 hours,robustly activated multiple components
same,IC50,[6],43 nM
same,PKCβ1 polypeptide degradation,[7],rapidly degraded PKCβ1 polypeptides
